Measurements taken from US20250002507A1, “7,8-DIHYDRO-5H-1,6-NAPHTHYRIDINE DERIVATIVES AS POSITIVE ALLOSTERIC MODULATORS OF THE MUSCARINIC ACETYLCHOLINE RECEPTOR M4 FOR TREATING NEUROLOGICAL AND PSYCHIATRIC DISORDERS” (Vanderbilt University, priority 2021, published 2025).

Biological target: T1, Human M4 (Homo sapiens, UniProt P08173)
T1 construct: expressed in transfected cells
T1 sequence (P08173 1-479): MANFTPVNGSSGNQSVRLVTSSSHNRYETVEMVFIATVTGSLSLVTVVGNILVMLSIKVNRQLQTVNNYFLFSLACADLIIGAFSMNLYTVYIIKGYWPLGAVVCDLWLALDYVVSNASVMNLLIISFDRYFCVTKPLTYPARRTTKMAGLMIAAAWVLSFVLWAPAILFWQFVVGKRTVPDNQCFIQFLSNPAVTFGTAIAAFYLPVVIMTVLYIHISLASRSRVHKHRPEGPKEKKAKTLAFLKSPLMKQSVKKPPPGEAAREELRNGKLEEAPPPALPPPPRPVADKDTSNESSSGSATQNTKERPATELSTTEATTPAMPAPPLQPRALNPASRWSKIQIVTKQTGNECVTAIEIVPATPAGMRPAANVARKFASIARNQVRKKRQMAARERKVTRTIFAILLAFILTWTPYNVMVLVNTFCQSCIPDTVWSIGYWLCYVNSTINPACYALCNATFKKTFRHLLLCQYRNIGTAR
Test: mAChR M4 cell-based functional assay (calcium flux, potentiation of EC20 acetylcholine response), hM4-Gqi5 CHO-K1 cells
Details: Table 3; for Emax at 30 µM: CHO-K1, Human M4, % ACh maximum at 30 μM, read-out: Emax (% ACh maximum at 30 μM); for EC50: potentiation of EC20 acetylcholine response, calcium flux, CHO-K1 cells, read-out: Human M4 EC50
In short: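 Positive allosteric modulation was scored as a concentration-dependent rise in the response to an EC20 dose of acetylcholine, added 144 s after the compound. Human M4-Gqi5 CHO-K1 cells carried Fluo-4 dye, and compounds ran as 11-point, 3-fold dilution series. EC50 and Emax came from four-parameter logistic fits of the FDSS fluorescence-ratio traces.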

SMILES: Cc1c(N2CCc3ncc(-c4cnn(C5CC5)c4)cc3C2)nn2c(C(F)(F)F)nnc2c1C [Compound 234, 3-(1-cyclopropyl-1H-pyrazol-4-yl)-6-(7,8-dimethyl-3-(trifluoromethyl)-[1,2,4]triazolo[4,3-b]pyridazin-6-yl)-5,6,7,8-tetrahydro-1,6-naphthyridine]
- Emax at 30 µM: 78%
- EC50: 330 nM

SMILES: Cc1c(N2CCc3ncc(-c4cnn(C5CCC5)c4)cc3C2)nn2c(C(F)(F)F)nnc2c1C [Compound 235, 3-(1-cyclobutyl-1H-pyrazol-4-yl)-6-(7,8-dimethyl-3-(trifluoromethyl)-[1,2,4]triazolo[4,3-b]pyridazin-6-yl)-5,6,7,8-tetrahydro-1,6-naphthyridine]
- Emax at 30 µM: 76%
- EC50: 788 nM

SMILES: Cc1cnn(C)c1-c1cnc2c(c1)CN(c1nn3c(C(F)(F)F)nnc3c(C)c1C)CC2 [Compound 236, 3-(1,4-dimethyl-1H-pyrazol-5-yl)-6-(7,8-dimethyl-3-(trifluoromethyl)-[1,2,4]triazolo[4,3-b]pyridazin-6-yl)-5,6,7,8-tetrahydro-1,6-naphthyridine]
- Emax at 30 µM: 65%
- EC50: 165 nM

SMILES: CCn1cc(-c2cnc3c(c2)CN(c2nn4c(C(F)(F)F)nnc4c(C)c2C)CC3)cn1 [Compound 237, 6-(7,8-dimethyl-3-(trifluoromethyl)-[1,2,4]triazolo[4,3-b]pyridazin-6-yl)-3-(1-ethyl-1H-pyrazol-4-yl)-5,6,7,8-tetrahydro-1,6-naphthyridine]
- Emax at 30 µM: 84%
- EC50: 332 nM

SMILES: Cc1c(N2CCc3ncc(-c4cnn(Cc5ccccc5)c4)cc3C2)nn2c(C(F)(F)F)nnc2c1C [Compound 238, 3-(1-benzyl-1H-pyrazol-4-yl)-6-(7,8-dimethyl-3-(trifluoromethyl)-[1,2,4]triazolo[4,3-b]pyridazin-6-yl)-5,6,7,8-tetrahydro-1,6-naphthyridine]
- Emax at 30 µM: 55%
- EC50: 1310 nM

SMILES: COc1cnc(Cl)c(-c2cnc3c(c2)CN(c2nn4c(C(F)(F)F)nnc4c(C)c2C)CC3)c1 [Compound 239, 3-(2-chloro-5-methoxypyridin-3-yl)-6-(7,8-dimethyl-3-(trifluoromethyl)-[1,2,4]triazolo[4,3-b]pyridazin-6-yl)-5,6,7,8-tetrahydro-1,6-naphthyridine]
- Emax at 30 µM: 57%
- EC50: 613 nM

SMILES: Cc1c(N2CCc3ncc(-c4cnn(C)c4)cc3C2)nn2c(C(F)(F)F)nnc2c1C [Compound 240, 6-(7,8-dimethyl-3-(trifluoromethyl)-[1,2,4]triazolo[4,3-b]pyridazin-6-yl)-3-(1-methyl-1H-pyrazol-4-yl)-5,6,7,8-tetrahydro-1,6-naphthyridine]
- Emax at 30 µM: 77%
- EC50: 158 nM

SMILES: Cc1c(N2CCc3ncc(-c4ccc(N(C)C)nc4)cc3C2)nn2c(C(F)(F)F)nnc2c1C [Compound 241, 5-(6-(7,8-dimethyl-3-(trifluoromethyl)-[1,2,4]triazolo[4,3-b]pyridazin-6-yl)-5,6,7,8-tetrahydro-1,6-naphthyridin-3-yl)-N,N-dimethylpyridin-2-amine]
- Emax at 30 µM: 61%
- EC50: 1230 nM

SMILES: Cc1c(N2CCc3ncc(-n4nccc4C)cc3C2)nn2c(C(F)(F)F)nnc2c1C [Compound 242, 6-(7,8-dimethyl-3-(trifluoromethyl)-[1,2,4]triazolo[4,3-b]pyridazin-6-yl)-3-(5-methyl-1H-pyrazol-1-yl)-5,6,7,8-tetrahydro-1,6-naphthyridine]
- Emax at 30 µM: 80%
- EC50: 696 nM

SMILES: Cc1cc(C)n(-c2cnc3c(c2)CN(c2nn4c(C(F)(F)F)nnc4c(C)c2C)CC3)n1 [Compound 243, 3-(3,5-dimethyl-1H-pyrazol-1-yl)-6-(7,8-dimethyl-3-(trifluoromethyl)-[1,2,4]triazolo[4,3-b]pyridazin-6-yl)-5,6,7,8-tetrahydro-1,6-naphthyridine]
- Emax at 30 µM: 77%
- EC50: 729 nM

SMILES: Cc1c(N2CCc3ncc(-n4cccc4)cc3C2)nn2c(C(F)(F)F)nnc2c1C [Compound 244, 6-(7,8-dimethyl-3-(trifluoromethyl)-[1,2,4]triazolo[4,3-b]pyridazin-6-yl)-3-(1H-pyrrol-1-yl)-5,6,7,8-tetrahydro-1,6-naphthyridine]
- Emax at 30 µM: 86%
- EC50: 546 nM

SMILES: Cc1c(N2CCc3ncc(-c4ccc(F)nc4)cc3C2)nn2c(C(F)(F)F)nnc2c1C [Compound 245, 6-(7,8-dimethyl-3-(trifluoromethyl)-[1,2,4]triazolo[4,3-b]pyridazin-6-yl)-3-(6-fluoropyridin-3-yl)-5,6,7,8-tetrahydro-1,6-naphthyridine]
- Emax at 30 µM: 80%
- EC50: 680 nM

SMILES: Cc1c(N2Cc3cc(C(F)(F)F)cnc3C(C)C2)nn2cnnc2c1C (stereo not drawn) [Compound 246, 6-(7,8-dimethyl-[1,2,4]triazolo[4,3-b]pyridazin-6-yl)-8-methyl-3-(trifluoromethyl)-5,6,7,8-tetrahydro-1,6-naphthyridine]
- Emax at 30 µM: 90%
- EC50: 408 nM

SMILES: Cc1c(N2CCc3ncc(-n4cccn4)cc3C2)nn2c(C(F)(F)F)nnc2c1C [Compound 247, 6-(7,8-dimethyl-3-(trifluoromethyl)-[1,2,4]triazolo[4,3-b]pyridazin-6-yl)-3-(1H-pyrazol-1-yl)-5,6,7,8-tetrahydro-1,6-naphthyridine]
- Emax at 30 µM: 74%
- EC50: 308 nM

SMILES: Cc1c(N2CCc3ncc(-n4ccc5ccccc54)cc3C2)nn2c(C(F)(F)F)nnc2c1C [Compound 248, 6-(7,8-dimethyl-3-(trifluoromethyl)-[1,2,4]triazolo[4,3-b]pyridazin-6-yl)-3-(1H-indol-1-yl)-5,6,7,8-tetrahydro-1,6-naphthyridine]
- Emax at 30 µM: 58%
- EC50: 2310 nM

SMILES: Cc1c(N2CCc3ncc(-c4ccc(N5CC[C@@H](F)C5)nc4)cc3C2)nn2c(C(F)(F)F)nnc2c1C [Compound 249, (R)-6-(7,8-dimethyl-3-(trifluoromethyl)-[1,2,4]triazolo[4,3-b]pyridazin-6-yl)-3-(6-(3-fluoropyrrolidin-1-yl)pyridin-3-yl)-5,6,7,8-tetrahydro-1,6-naphthyridine]
- Emax at 30 µM: 65%
- EC50: 1210 nM

SMILES: Cc1c(N2CCc3ncc(-c4ccc(N5CC[C@H](F)C5)nc4)cc3C2)nn2c(C(F)(F)F)nnc2c1C [Compound 250, (S)-6-(7,8-dimethyl-3-(trifluoromethyl)-[1,2,4]triazolo[4,3-b]pyridazin-6-yl)-3-(6-(3-fluoropyrrolidin-1-yl)pyridin-3-yl)-5,6,7,8-tetrahydro-1,6-naphthyridine]
- Emax at 30 µM: 60%
- EC50: 1250 nM

SMILES: Cc1c(N2CCc3ncc(-c4ccnn4C)cc3C2)nn2c(C(F)(F)F)nnc2c1C [Compound 251, 6-(7,8-dimethyl-3-(trifluoromethyl)-[1,2,4]triazolo[4,3-b]pyridazin-6-yl)-3-(1-methyl-1H-pyrazol-5-yl)-5,6,7,8-tetrahydro-1,6-naphthyridine]
- Emax at 30 µM: 83%
- EC50: 169 nM

SMILES: Cc1c(N2CCc3ncc(-c4ccns4)cc3C2)nn2c(C(F)(F)F)nnc2c1C [Compound 252, 5-(6-(7,8-dimethyl-3-(trifluoromethyl)-[1,2,4]triazolo[4,3-b]pyridazin-6-yl)-5,6,7,8-tetrahydro-1,6-naphthyridin-3-yl)isothiazole]
- Emax at 30 µM: 80%
- EC50: 140 nM

SMILES: Cc1c(N2CCc3ncc(-c4cnn(C5CCCCC5)c4)cc3C2)nn2c(C(F)(F)F)nnc2c1C [Compound 253, 3-(1-cyclohexyl-1H-pyrazol-4-yl)-6-(7,8-dimethyl-3-(trifluoromethyl)-[1,2,4]triazolo[4,3-b]pyridazin-6-yl)-5,6,7,8-tetrahydro-1,6-naphthyridine]
- Emax at 30 µM: 42%
- EC50: 1690 nM

SMILES: Cc1c(N2CCc3ncc(-c4ccn(C)n4)cc3C2)nn2c(C(F)(F)F)nnc2c1C [Compound 254, 6-(7,8-dimethyl-3-(trifluoromethyl)-[1,2,4]triazolo[4,3-b]pyridazin-6-yl)-3-(1-methyl-1H-pyrazol-3-yl)-5,6,7,8-tetrahydro-1,6-naphthyridine]
- Emax at 30 µM: 76%
- EC50: 494 nM

SMILES: Cc1c(N2CCc3ncc(-c4ccc(C5CC5)nc4)cc3C2)nn2c(C(F)(F)F)nnc2c1C [Compound 255, 3-(6-cyclopropylpyridin-3-yl)-6-(7,8-dimethyl-3-(trifluoromethyl)-[1,2,4]triazolo[4,3-b]pyridazin-6-yl)-5,6,7,8-tetrahydro-1,6-naphthyridine]
- Emax at 30 µM: 62%
- EC50: 602 nM

SMILES: Cc1ccc(-c2cnc3c(c2)CN(c2nn4c(C(F)(F)F)nnc4c(C)c2C)CC3)cn1 [Compound 256, 6-(7,8-dimethyl-3-(trifluoromethyl)-[1,2,4]triazolo[4,3-b]pyridazin-6-yl)-3-(6-methylpyridin-3-yl)-5,6,7,8-tetrahydro-1,6-naphthyridine]
- Emax at 30 µM: 78%
- EC50: 250 nM

SMILES: Cc1c(N2CCc3ncc(-c4cccnc4)cc3C2)nn2c(C(F)(F)F)nnc2c1C [Compound 257, 6-(7,8-dimethyl-3-(trifluoromethyl)-[1,2,4]triazolo[4,3-b]pyridazin-6-yl)-3-(pyridin-3-yl)-5,6,7,8-tetrahydro-1,6-naphthyridine]
- Emax at 30 µM: 78%
- EC50: 218 nM
